Patent US20130309380A1, “METHODS FOR PRESERVING FRESH PRODUCE” (NatureSeal, Inc., priority 2003, published 2013)

How the values were obtained:
[1] = tested on: Bramley apples; assay: Evaluation of sliced Bramley apples: appearance by visual inspection, firmness by bending
Protocol: The firmness of the produce in Example 11a were evaluated by bending produce samples. Appearance was evaluated by visual inspection. The moisture was evaluated by measuring the amount of water the produce released.
Whole Bramley apples free from blemishes or bruises, were rinsed with water, sanitized with a sodium hypochlorite solution having 100 parts per million available chlorine, for two minutes, then peeled, cored, and sliced. The sliced apples were dipped into a fresh produce preservative solution that contained 5.12% strontium ascorbate; the fresh produce preservative solution contained 4.12% ascorbic acid and 1.79% […], for about 30 to 60 seconds. The apples were then drained in a colander for one minute. The apple slices and the colander were placed in 500 micron plastic bags from SunSet Packaging, stored at 4° C. and evaluated several times over a 15 day period. Water which collected in the plastic bag was removed and weighed.
For comparison, similarly prepared apple slices were placed in one of several solutions that contained either: 4.3% ascorbic acid and 1.13% hydrated MgCO3, specifically 4MgCO3.Mg(OH)25H2O or a 5.0% w/w aqueous solution of calcium ascorbate dihydrate, having a pH of 7.2; or a 5.3% w/w solution, of 4.12% ascorbic acid and 1.17% calcium carbonate,; or 6% ascorbic acid having a pH of 2.3; or 48 g ascorbic acid, 48 g citric acid, 16 g CaCl2 and 48 g NaCl in 800 g water, with a pH of 1.2; or 6% w/w citric acid and 6% w/w ascorbic acid; or 4.64% sodium ascorbate having 4.13% ascorbic acid and 1.18% NaCo3.
Bramley apples were preserved with the fresh produce preservative as in Example 11a except that the preservative solution contained lithium ascorbate. The lithium ascorbate solution was prepared by adding 7.35 grams of lithium carbonate and 35 grams ascorbic acid to 800 grams water.
For comparison, apple slices were placed in one of several comparative solutions: a 5.0% w/w aqueous solution of calcium ascorbate dihydrate containing 42.5 grams of calcium ascorbate dihydrate and 800 grams water with a pH of 7; a 5.3% w/w solution of calcium ascorbate containing 44.94 grams of mixture of 9.95 grams calcium carbonate and 35 grams ascorbic acid in 800 grams water with a pH of 5.5; a comparative solution, containing 48 g ascorbic acid, 48 g citric acid, 16 g CaCl2, 48 g NaCl and 800 g water with a pH of 1.2; a comparative solution of sodium ascorbate containing 28.45 grams of sodium carbonate 35 grams ascorbic acid, 800 grams water having a pH of 6.8; a comparative solution of calcium ascorbate containing 8.75 grams of calcium carbonate, 35 grams ascorbic acid, and to 800 grams water; a comparative solution of calcium ascorbate containing 9.95 grams of calcium carbonate, 35 grams ascorbic acid, and 765 grams water; a comparative solution of magnesium ascorbate containing 9.66 grams of hydrated magnesium carbonate 4MgCO3.Mg(OH)25H2O, 35 grams ascorbic acid, 765 grams water, having a pH of 6.4; and a comparative solution of zinc ascorbate containing 35 grams ascorbic acid, 12.74 grams zinc carbonate and 765 grams water, with a pH of 5.5. The apple slices were evaluated on day five.

[2] = tested on: Granny Smith apples; assay: Evaluation of sliced Granny Smith apples preserved with fresh produce preservative (scores); conditions: scale to 10
Text: Red Delicious apples and Granny Smith apples were preserved with the fresh produce preservative as in Example 1 a, except that the preservative solution contained 4% ascorbic acid and 1% Li2CO3.

[3] = tested on: Bartlett pears; assay: Evaluation of sliced Bartlett pears preserved with fresh produce preservative (scores); set-up: key: 1–10 scale, 10 = freshly cut fruit; below 7 not acceptable; conditions: for Color / Flavor / Moistness / Texture: scale to 10; for color/appearance score: scale to 10 (Table 5)
Protocol: The texture, flavor, and moistness of the fruit were evaluated by tasting fruit samples. The color and/or appearance was also evaluated by visual inspection. The color, texture, moistness and flavor were then evaluated according to a scale of either 1 to 10, with 10 being the value assigned to a freshly cut piece of comparative fruit or vegetable. A value of less than 7 is not acceptable.
(§1) Whole Red Delicious apples were rinsed with tap water, sanitized with a sodium hypochlorite solution containing 100 ppm chlorine, then cored and sliced. The apple slices were immersed in water for 0.5 to 2 minutes. Then the apple slices were dipped into produce preservative solution containing 4% ascorbic acid and 1.59% K2CO3 having a pH 5.69 for 1 minute. The slices were removed from the solution and drained for 1-2 minutes, sealed in polyethylene bags, and stored at 2-5° C. For controls, sliced apples either not treated or were dipped into either 4% ascorbic acid with 0.66% NaOH to adjust the pH to 4.45. For comparison, sliced apples were dipped into a solution containing 4% ascorbic acid and 1.22% Na2CO3 and having a pH of 5.58.
Bartlett pears were preserved with the fresh produce preservative as in Example 1a, with preservative solution that contained 4% ascorbic acid and 1.59% K2-CO3. For comparison, pears were treated with a comparative solution that contained 4% ascorbic acid and 1.22% Na2CO3.
Bartlett pears were preserved with the fresh produce preservative as in Example 1a, except that the preservative solution contained 4% ascorbic acid and 1% Li2CO3.

[4] = tested on: Red Delicious apples; assay: Hardness of sliced Red Delicious apples measured with QTS25
Protocol: The firmness or hardness of the fruit is the force required for a probe to penetrate the fruit a given distance into the fruit. The firmness is determined using a Quality and Test System 25 and TA 40 probe from Stevens Company. The TA 40 probe a black acetate, 4.5 mm diameter, 20 mm long rod probe having a flat end. The following settings were employed in the QTS system: the test type is a compression test of one cycle, 0 second hold time, 0 second recovery, 5 g trigger point, 30 mm/min test speed, target unit distance, and a target value of 3 mm. The apple pieces were 1 cm thick.
as §1
The apples were evaluated and scored on a scale of 0-10 at time intervals. A score of 10 means that the fruit's color and appearance is as good as fresh cut fruit. A score of 7 is the minimum acceptable appearance. Hardness was measured with QTS25.

For `O=C1O[C@H]([C@@H](O)CO)C(O)=C1O` [Ascorbic Acid, ascorbic acid], the Texture ([1]; 28 hr at 4° C.) was “Firm”, the Texture ([1]; 52 hr at 4° C.) was “Firm” and the “Appearance (visual inspection)” value ([1]; 191 hr at 4° C.) was “brown”. The Texture ([1]; 191 hr at 4° C.) was “soft”, the color/appearance score ([2]; 1 week) was 6 and the color/appearance score ([2]; 1 day) was 10. It also gave a color/appearance score ([2]; 3 days) of 10, a Color ([3]; 0 hour) of 10 and a Flavor ([3]; 0 hour) of 5. For the same molecule, the Moistness ([3]; 0 hour) was 10, the Texture ([3]; 0 hour) was 10 and the Color ([3]; 1 week) was 8.6. For the same molecule, the Flavor ([3]; 1 week) was 8.8, the Moistness ([3]; 1 week) was 7 and the Texture ([3]; 1 week) was 3. The Color ([3]; 2 weeks) was 6.4, the Flavor ([3]; 2 weeks) was 3.4 and the Texture ([3]; 2 weeks) was 1. It also gave a Color ([3]; 1 day) of 10, a Flavor ([3]; 1 day) of 9 and a Moistness ([3]; 1 day) of 10. It also gave a Texture ([3]; 1 day) of 9.6, a color/appearance score ([3]; 1 day) of 10 and a color/appearance score ([3]; 2 days) of 6. The Hardness ([4]; 0 hour) was 2083, the Hardness ([4]; 1 week at 2-5° C.) was 1578 and the Hardness ([4]; 2 week at 2-5° C.) was 1072.
